US9029389B2 (Institut Pasteur Korea, priority 2011, dated 2015)

How the values were obtained:
Human 5-lipoxygenase = biological target: T1, Human 5-lipoxygenase (Homo sapiens, UniProt P09917); experiment: Activity of compounds against 5-LO enzyme (LTB4 measurement and/or fluorescence method); type: biochemical; details: for inhibition at 10 µM: 5-LO, single concentration of 10 uM in duplicate; for IC50: 6 or 11 point dose response in duplicate
T1 construct: purchased Cayman 60402; host or cells: insect cells
T1 sequence (P09917 1-674): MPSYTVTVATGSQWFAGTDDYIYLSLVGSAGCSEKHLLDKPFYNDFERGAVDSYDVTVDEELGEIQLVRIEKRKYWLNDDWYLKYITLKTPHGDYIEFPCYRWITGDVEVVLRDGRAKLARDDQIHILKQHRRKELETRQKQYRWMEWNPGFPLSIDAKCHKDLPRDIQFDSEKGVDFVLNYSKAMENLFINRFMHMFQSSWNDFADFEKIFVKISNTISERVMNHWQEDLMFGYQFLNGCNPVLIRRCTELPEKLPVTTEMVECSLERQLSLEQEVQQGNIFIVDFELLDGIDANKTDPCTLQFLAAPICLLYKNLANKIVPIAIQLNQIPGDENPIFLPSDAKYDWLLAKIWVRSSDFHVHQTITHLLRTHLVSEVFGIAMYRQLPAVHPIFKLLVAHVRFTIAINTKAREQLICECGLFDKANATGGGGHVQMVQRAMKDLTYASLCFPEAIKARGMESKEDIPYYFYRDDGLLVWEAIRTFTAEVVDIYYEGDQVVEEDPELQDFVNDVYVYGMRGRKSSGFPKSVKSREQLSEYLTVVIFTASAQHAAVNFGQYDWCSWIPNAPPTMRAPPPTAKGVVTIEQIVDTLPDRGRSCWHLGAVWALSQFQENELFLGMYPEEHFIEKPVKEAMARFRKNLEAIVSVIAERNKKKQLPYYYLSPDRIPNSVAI
Outline: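 Insect-cell human 5-LO preincubated 15 min at RT with compound (pH 7.4, 2 mM CaCl2, 0.1 mM ATP, 1% DMSO), then 3 uM arachidonic acid for 5 min at 37 °C; LTB4 quantified by EIA and/or LC/MS/MS. Alternatively, fluorescence of 5-HpETE via H2DCFDA, 100 uM ATP, 3 uM arachidonic acid, 5 min, RT; single 10 uM screen then 6- or 11-point IC50.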

| inhibition at 10 µM (Human 5-lipoxygenase) | melting point | IC50 (Human 5-lipoxygenase) | SMILES |
| --- | --- | --- | --- |
| 40 to 69% | 158 to 159 °C |  | CCc1nc2ccc(Cl)cn2c1C(=O)NCCc1ccc(Cl)cc1 [compound 137, 6-Chloro-N-(4-chlorophenethyl)-2-ethylimidazo[1,2-a]pyridine-3-carboxamide] |
| 40 to 69% | 171 to 172 °C |  | CCc1nc2ccc(Cl)cn2c1C(=O)NCC1CCN(Cc2ccc(OC(F)(F)F)cc2)CC1 [compound 138, 6-Chloro-2-ethyl-N-((1-(4-(trifluoromethoxy)benzyl)piperidin-4-yl)methyl)imidazo[1,2-a]pyridine-3-carboxamide] |
| < 40% | 176 to 177 °C |  | CCc1nc2ccc(Cl)cn2c1C(=O)NCC1CCN(Cc2ccc(F)cc2)CC1 [compound 139, 6-Chloro-2-ethyl-N-((1-(4-fluorobenzyl)piperidin-4-yl)methyl)imidazo[1,2-a]pyridine-3-carboxamide] |
| 40 to 69% | 145 to 146 °C |  | CCc1nc2cc(Cl)ccn2c1C(=O)NCC1CCN(Cc2ccc(OC(F)(F)F)cc2)CC1 [compound 140, 7-Chloro-2-ethyl-N-((1-(4-(trifluoromethoxy)benzyl)piperidin-4-yl)methyl)imidazo[1,2-a]pyridine-3-carboxamide] |
| < 40% | 176 to 177 °C |  | CCc1nc2cnccn2c1C(=O)NCc1ccc(OC(F)(F)F)cc1 [compound 141, 2-Ethyl-N-(4-(trifluoromethoxy)benzyl)imidazo[1,2-a]pyrazine-3-carboxamide] |
| 40 to 69% | 215 to 216 °C |  | CCc1nc2c[n+]([O-])ccn2c1C(=O)NCc1ccc(OC(F)(F)F)cc1 [compound 142, 2-Ethyl-3-((4-(trifluoromethoxy)benzyl)carbamoyl)imidazo[1,2-a]pyrazine 7-oxide] |
| > 69% | 127 to 128 °C |  | CCc1nc2ccc(Cl)cn2c1COc1ccc(OC(F)(F)F)cc1 [compound 143, 6-Chloro-2-ethyl-3-((4-(trifluoromethoxy)phenoxy)methyl)imidazo[1,2-a]pyridine] |
| < 40% | 115 to 116 °C |  | CCc1nc2ccc(Cl)cn2c1C=O [compound 145, 6-Chloro-2-ethylimidazo[1,2-a]pyridine-3-carbaldehyde] |
| < 40% | 173.2 to 174.2 °C |  | CCc1nc2ccc(Cl)cn2c1CO [compound 146, (6-Chloro-2-ethylimidazo[1,2-a]pyridin-3-yl)methanol] |
| < 40% | 196.2 to 196.9 °C |  | CCc1nc2cc(Cl)ccn2c1C(=O)NCc1ccc(C(F)(F)F)cc1 [compound 155, 7-Chloro-2-ethyl-N-(4-(trifluoromethyl)benzyl)imidazo[1,2-a]pyridine-3-carboxamide] |
| < 40% | 138.1 to 138.7 °C |  | CCc1nc2ccc(Cl)cn2c1C(=O)NCc1ccc(N2CCN(Cc3ccc(OC(F)(F)F)cc3)CC2)cc1 [compound 156, 6-Chloro-2-ethyl-N-(4-(4-(4-(trifluoromethoxy)benzyl)piperazin-1-yl)benzyl)imidazo[1,2-a]pyridine-3-carboxamide] |
| > 69% | 137.1 to 137.6 °C | 1 to 20 µM | CCc1nc2cc(Cl)ccn2c1C(=O)NCc1ccc(N2CCN(Cc3ccc(OC(F)(F)F)cc3)CC2)cc1 [compound 157, 7-Chloro-2-ethyl-N-(4-(4-(4-(trifluoromethoxy)benzyl)piperazin-1-yl)benzyl)imidazo[1,2-a]pyridine-3-carboxamide] |
| 40 to 69% | 206.5 to 207 °C |  | CCc1nc2ccc(Cl)cn2c1C(=O)NCc1ccc(N2CCN(c3ccc(OC(F)(F)F)cc3)CC2)cc1 [compound 158, 6-Chloro-2-ethyl-N-(4-(4-(4-(trifluoromethoxy)phenyl)piperazin-1-yl)benzyl)imidazo[1,2-a]pyridine-3-carboxamide] |
| 40 to 69% | 216.3 to 217 °C |  | CCc1nc2cc(Cl)ccn2c1C(=O)NCc1ccc(N2CCN(c3ccc(OC(F)(F)F)cc3)CC2)cc1 [compound 159, 7-Chloro-2-ethyl-N-(4-(4-(4-(trifluoromethoxy)phenyl)piperazin-1-yl)benzyl)imidazo[1,2-a]pyridine-3-carboxamide] |
| 40 to 69% | 159 to 160.7 °C |  | CCc1nc2ccc(Cl)cn2c1C(=O)NCc1ccc(Oc2ccc(Cl)cc2)cc1 [compound 160, 6-Chloro-N-(4-(4-chlorophenoxy)benzyl)-2-ethylimidazo[1,2-a]pyridine-3-carboxamide] |
| > 69% | 167.1 to 167.9 °C | 1 to 20 µM | CCc1nc2cc(Cl)ccn2c1C(=O)NCc1ccc(Oc2ccc(Cl)cc2)cc1 [compound 161, 7-Chloro-N-(4-(4-chlorophenoxy)benzyl)-2-ethylimidazo[1,2-a]pyridine-3-carboxamide] |
| 40 to 69% | 122.3 to 123 °C |  | CCc1nc2ccc(Cl)cn2c1C(=O)OCc1ccc(-c2ccccc2)cc1 [compound 162, [1,1′-Biphenyl]-4-ylmethyl 6-chloro-2-ethylimidazo[1,2-a]pyridine-3-carboxylate] |
| 40 to 69% | 123.3 to 123.8 °C |  | CCc1nc2ccc(Cl)cn2c1C(=O)OCc1ccc(Oc2ccccc2)cc1 [compound 163, 4-Phenoxybenzyl 6-chloro-2-ethylimidazo[1,2-a]pyridine-3-carboxylate] |
| < 40% | 146.4 to 146.9 °C |  | CCc1nc2ccc(Cl)cn2c1-c1nc(Cc2ccc(OC(F)(F)F)cc2)no1 [compound 165, 5-(6-Chloro-2-ethylimidazo[1,2-a]pyridin-3-yl)-3-(4-(trifluoromethoxy)benzyl)-1,2,4-oxadiazole] |
| > 69% | 178 to 179 °C | 1 to 20 µM | CCc1nc2ccccn2c1C(=O)NCc1ccc(N2CCN(c3ccc(OC(F)(F)F)cc3)CC2)cc1 [compound 181, 2-Ethyl-N-(4-(4-(4-(trifluoromethoxy)phenyl)piperazin-1-yl)benzyl)imidazo[1,2-a]pyridine-3-carboxamide] |
| < 40% | 176 to 177 °C |  | CCc1nc2ccc(Cl)cn2c1C(=O)NCc1ccc(N2CC(C)OC(C)C2)cc1 (stereo not shown) [compound 182, 6-Chloro-N-(4-(2,6-dimethylmorpholino)benzyl)-2-ethylimidazo[1,2-a]pyridine-3-carboxamide] |
| < 40% | 165 to 166 °C |  | CCc1nc2cc(Cl)ccn2c1C(=O)NCc1ccc(N2CC(C)OC(C)C2)cc1 (stereo not shown) [compound 183, 7-Chloro-N-(4-(2,6-dimethylmorpholino)benzyl)-2-ethylimidazo[1,2-a]pyridine-3-carboxamide] |
| < 40% | 192 to 193 °C |  | Cc1nc2ccc(Cl)cn2c1C(=O)NCc1ccc(OC(F)(F)F)cc1 [compound 184, 6-Chloro-2-methyl-N-(4-(trifluoromethoxy)benzyl)imidazo[1,2-a]pyridine-3-carboxamide] |
| 40 to 69% | 167 to 167.6 °C |  | CCc1nc2cc(Cl)ccn2c1C(=O)NCc1ccc(Oc2ccc(F)cc2)nc1 [compound 188, 7-Chloro-2-ethyl-N-((6-(4-fluorophenoxy)pyridin-3-yl)methyl)imidazo[1,2-a]pyridine-3-carboxamide] |
| > 69% | 154 to 155 °C | < 1 µM | CCc1nc2ccc(Cl)cn2c1C(=O)NCc1ccc(Oc2ccc(OC(F)(F)F)cc2)nc1 [compound 189, 6-Chloro-2-ethyl-N-((6-(4-(trifluoromethoxy)phenoxy)pyridin-3-yl)methyl)imidazo[1,2-a]pyridine-3-carboxamide] |
| < 40% | 222 to 223 °C |  | CCc1nc2ccc(Cl)cn2c1C(=O)NCc1ccc(N2CCCC2)cc1 [compound 191, 6-Chloro-2-ethyl-N-(4-(pyrrolidin-1-yl)benzyl)imidazo[1,2-a]pyridine-3-carboxamide] |
| > 69% | 157.2 to 158 °C | > 20 µM | CCc1nc2ccc(Cl)cn2c1C(=O)NCc1ccc(N2CC(C)CC(C)C2)cc1 (stereo not shown) [compound 197, 6-Chloro-N-(4-(3,5-dimethylpiperidin-1-yl)benzyl)-2-ethylimidazo[1,2-a]pyridine-3-carboxamide] |
| 40 to 69% | 181.5 to 182.8 °C |  | CCc1nc2cc(Cl)ccn2c1C(=O)NCc1ccc(N2CC(C)CC(C)C2)cc1 (stereo not shown) [compound 198, 7-Chloro-N-(4-(3,5-dimethylpiperidin-1-yl)benzyl)-2-ethylimidazo[1,2-a]pyridine-3-carboxamide] |
